The first series relates to larvae of brown planthopper (Nilaparvata lugens Stahl). Description: Test Example 1: insecticidal activity against larvae of brown planthopper. In kind it is in vivo. As to conditions: 120 h, third-instar larvae, 25° C., 5 days after treatment. Put shortly: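 Rice seedlings at 1.5-leaf stage were dipped for 30 s in a 400 ppm test composition, air-dried, and infested with third-instar N. lugens larvae. After holding at 25 °C, mortality was scored 5 or 7 days post-treatment from three replicates.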
With `CCCN1C(=O)N(c2ccccc2)CSC1=NC(C)CC` (stereo not shown) [Compound 136], the mortality (in general, the share of the test organisms that died) at 400 ppm came to 80%.

Compound `CCC(C)N1C(=O)N(c2ccccc2)CSC1=NC(C)(C)CC(C)(C)C` (stereo not shown) [Compound 157] returned a mortality at 400 ppm of 100%.

Regarding `CCCN=C1SCN(c2ccccc2)C(=O)N1CC` [Compound 126], the mortality at 400 ppm was found to be 100%.

As to `CC(C)CN1C(=O)N(c2ccccc2)CSC1=NC(C)C` [Compound 149, 2-Isopropylimino-3-isobutyl-5-phenyl-tetrahydro-1,3,5-thiadiazin-4-one], the mortality at 400 ppm worked out at 100%.

`CCN1C(=O)N(c2ccccc2)CSC1=NCC(C)C` [Compound 129] had a mortality at 400 ppm of 80%.

`Cc1ccc(N2CSC(=NC(C)C)N(C(C)C)C2=O)cc1` [Compound 316] returned a mortality at 400 ppm of 100%.

In the case of `C=CCN=C1SCN(c2ccccc2)C(=O)N1CC=C` [Compound 139], the mortality at 400 ppm was 100%.

The series is the same for the next values; noted with them: 168 h, third-instar larvae, 25° C., 7 days after treatment.
On to `COc1ccc(Cl)cc1N1C(=O)N(Cc2ccccc2)CSC1=NC(C)C` [Compound 87], for which the mortality at 400 ppm is 100%.

`C=CCN1CSC(=NC)N(C)C1=O` [Compound 9] gave a mortality at 400 ppm of 100%.

Compound `CCN1CSC(=NC(C)(C)C)N(C)C1=O` [Compound 6] had a mortality at 400 ppm of 100%.

In turn, `CN=C1SCN(C(C)(C)C)C(=O)N1c1ccccc1` [Compound 69] came in with a mortality at 400 ppm of 100%.

As to `CCCCCCN1CSC(=NC(C)C)N(C(C)C)C1=O` [Compound 51], the mortality at 400 ppm came to 100%.

For another series, the system named is larvae of white-backed planthopper (Sogatella furcifera Horvath). Nature of the series: Test Example 2: insecticidal activity against larvae of white-backed planthopper. As to conditions: 168 h, 400 ppm, first-instar larvae, 25° C., seven days after treatment, read-out: Mortality. In kind it is in vivo. The gist of the method: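 Rice seedlings at 1.5-leaf stage were dipped 30 s in 400 ppm test composition, air-dried, and infested with five first-instar larvae. Tubes were held at 25°C, and mortality was scored at 7 days from triplicate tests.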
Regarding `COc1ccc(Cl)cc1N1C(=O)N(Cc2ccccc2)CSC1=NC(C)C` [Compound 87], the mortality at 400 ppm was found to be 100%.

In the case of `C=CCN1CSC(=NC)N(C)C1=O` [Compound 9], the mortality at 400 ppm came to 100%.

For `CCN1CSC(=NC(C)(C)C)N(C)C1=O` [Compound 6], the mortality at 400 ppm came to 100%.

Consider `CN=C1SCN(C(C)(C)C)C(=O)N1c1ccccc1` [Compound 69], for which the mortality at 400 ppm worked out at 100%.

Regarding `CCCCCCN1CSC(=NC(C)C)N(C(C)C)C1=O` [Compound 51], the mortality at 400 ppm worked out at 100%.

`Cc1ccc(N2CSC(=NC(C)C)N(C(C)C)C2=O)cc1` [Compound 316]: the mortality at 400 ppm is 100%.

A further series concerns two-spotted spider mite (Tetranychus urticae Koch). Description: Test Example 3: activity to two-spotted spider mite. As to conditions: 48 h, 1,000 ppm, 2 days after treatment. It counts as in vivo. The source says: Activity to two-spotted spider mite (Tetranychus urticae Koch).
Testing method: Two-spotted spider mites were set free on the pot-planted soybean in a greenhouse. On the next day, a test composition of 1,000 ppm concentration was sprayed over the soybean by means of a spray gun. Two days or five days after the treatment, dead-and-survival was inspected to calculate the mortality.
In turn, `COc1ccc(Cl)cc1N1C(=O)N(Cc2ccccc2)CSC1=NC(C)C` [Compound 87] yielded a mortality at 1000 ppm of 100%.

`C=CCN1CSC(=NC)N(C)C1=O` [Compound 9] gave a mortality at 1000 ppm of 80%.

`CCN1CSC(=NC(C)(C)C)N(C)C1=O` [Compound 6] returned a mortality at 1000 ppm of 100%.

As for `CN=C1SCN(C(C)(C)C)C(=O)N1c1ccccc1` [Compound 69], the mortality at 1000 ppm turned out to be 100%.

`CCCCCCN1CSC(=NC(C)C)N(C(C)C)C1=O` [Compound 51] displayed a mortality at 1000 ppm of 100%.

Still in this series, the particulars now being: 120 h, 1,000 ppm, 5 days after treatment.
Consider `Cc1ccc(N2CSC(=NC(C)C)N(C(C)C)C2=O)cc1` [Compound 316], for which the mortality at 1000 ppm came out at 100%.

The subject of a further series is cirrus red mite (Panonychus citri McGregor). Nature of the series: Test Example 4: activity to citrus red mite (Rothamstead method). It counts as in vivo. Also noted: concentration or dose not given beside the values. As to conditions: two days after treatment, 25° C.; 2880 min. As for the experimental part: Activity to cirrus red mite (Panonychus citri McGregor).
Testing method: The test was performed by Rothamstead method. A test composition was sprayed by means of a spray gun over grapefruit leaves infested with citrus red mites. After air-drying the grapefruit was left standing in a constant temperature cabinet at 25° C. Two days after the treatment, the number of survived mites was counted to calculate the mortality.
Compound `COc1ccc(Cl)cc1N1C(=O)N(Cc2ccccc2)CSC1=NC(C)C` [Compound 87] yielded a Mortality of 100%.

`C=CCN1CSC(=NC)N(C)C1=O` [Compound 9] returned a Mortality of 50%.

The compound `CCN1CSC(=NC(C)(C)C)N(C)C1=O` [Compound 6] came in with a Mortality of 80%.

Take `CN=C1SCN(C(C)(C)C)C(=O)N1c1ccccc1` [Compound 69]: the Mortality was 80%.

In turn, `CCCCCCN1CSC(=NC(C)C)N(C(C)C)C1=O` [Compound 51] showed a Mortality of 50%.

Take `Cc1ccc(N2CSC(=NC(C)C)N(C(C)C)C2=O)cc1` [Compound 316]: the Mortality is given as 100%.

The subject of another series is larvae of green rice leafhopper (Nephotettix cincticeps Uhler). Nature of the series: Test Example 5: activity against larvae of green rice leafhopper. In kind it is in vivo. As to conditions: 168 h, 400 ppm, second-instar larvae, 25° C., seven days after treatment, read-out: Mortality. Put shortly:
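Rice seedlings at 1.5 leaf age dipped 30 seconds in 400 ppm test composition, air-dried, then infested with five second-instar larvae. Kept at 25° C; mortality scored seven days after treatment, three replicates.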
For the compound `COc1ccc(Cl)cc1N1C(=O)N(Cc2ccccc2)CSC1=NC(C)C` [Compound 87], the mortality at 400 ppm was 80%.

Regarding `C=CCN1C(=O)N(c2ccccc2)CSC1=NC(C)(C)C` [Compound 143], the mortality at 400 ppm was determined as 100%.

`C=CCN1CSC(=NC)N(C)C1=O` [Compound 9]: the mortality at 400 ppm was 100%.

As for `CCN1CSC(=NC(C)(C)C)N(C)C1=O` [Compound 6], the mortality at 400 ppm turned out to be 80%.

On to `CN=C1SCN(C(C)(C)C)C(=O)N1c1ccccc1` [Compound 69], for which the mortality at 400 ppm is 100%.

Take `CCCCCCN1CSC(=NC(C)C)N(C(C)C)C1=O` [Compound 51]: the mortality at 400 ppm worked out at 50%.

The test system of another series is larvae of house mosquito (Culex pipiens pallens Coquillett). Description: Test Example 6: insecticidal activity to larvae of house mosquito. It counts as in vivo. As to conditions: 120 h. Put shortly: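 Twenty first-instar Culex pipiens pallens larvae placed with feed in test composition diluted in deionized water to 10 ppm. Kept at 25 °C, and mortality counted five days after treatment.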
Consider `CCCN1C(=O)N(c2ccccc2)CSC1=NC(C)CC` (stereo not shown) [Compound 136], for which the mortality at 10 ppm stood at 100%.

The compound `CCC(C)N1C(=O)N(c2ccccc2)CSC1=NC(C)(C)CC(C)(C)C` (stereo not shown) [Compound 157] came in with a mortality at 10 ppm of 100%.

`CCCN=C1SCN(c2ccccc2)C(=O)N1CC` [Compound 126] gave a mortality at 10 ppm of 100%.

For the compound `CC(C)CN1C(=O)N(c2ccccc2)CSC1=NC(C)C` [Compound 149, 2-Isopropylimino-3-isobutyl-5-phenyl-tetrahydro-1,3,5-thiadiazin-4-one], the mortality at 10 ppm turned out to be 100%.

Compound `C=CCN1C(=O)N(c2ccccc2)CSC1=NC(C)(C)C` [Compound 143] gave a mortality at 10 ppm of 80%.

In turn, `CCN1C(=O)N(c2ccccc2)CSC1=NCC(C)C` [Compound 129] showed a mortality at 10 ppm of 100%.

In turn, `Cc1ccc(N2CSC(=NC(C)C)N(C(C)C)C2=O)cc1` [Compound 316] came in with a mortality at 10 ppm of 70%.

`C=CCN=C1SCN(c2ccccc2)C(=O)N1CC=C` [Compound 139] returned a mortality at 10 ppm of 100%.

Another series deals with larvae of 28-spotted lady beetle (Epilachna vigintioctopunctana Fabricius). Description: Test Example 8: insecticidal activity against larvae of 28-spotted lady beetle. In kind it is in vivo. As to conditions: 120 h. Here is the method: Insecticidal activity against larvae of 28-spotted lady beetle (Epilachna vigintioctopunctana Fabricius).
Testing method: Leaflets of tomato grown in a greenhouse were dipped in a test composition of 100 ppm concentration for 30 seconds and after that the leaflets were dried by air. In a Petri dish covered on the bottom with a piece of filter paper, were introduced 1 ml of water and three treated tomato leaflets. After having been infested with seven second-instar larvae of 28-spotted lady beetle, the Petri dish was left standing in a constant temperature cabinet at 25° C. Five days after the treatment, the dead-and-survival was inspected to calculate the mortality (2-replication test).
`CCCN1C(=O)N(c2ccccc2)CSC1=NC(C)CC` (stereo not shown) [Compound 136] displayed a mortality at 100 ppm of 50%.

`CCC(C)N1C(=O)N(c2ccccc2)CSC1=NC(C)(C)CC(C)(C)C` (stereo not shown) [Compound 157] yielded a mortality at 100 ppm of 100%.

The compound `CC(C)CN1C(=O)N(c2ccccc2)CSC1=NC(C)C` [Compound 149, 2-Isopropylimino-3-isobutyl-5-phenyl-tetrahydro-1,3,5-thiadiazin-4-one] had a mortality at 100 ppm of 100%.

On to `C=CCN1C(=O)N(c2ccccc2)CSC1=NC(C)(C)C` [Compound 143], for which the mortality at 100 ppm stood at 100%.

`Cc1ccc(N2CSC(=NC(C)C)N(C(C)C)C2=O)cc1` [Compound 316]: the mortality at 100 ppm was found to be 100%.

For the compound `C=CCN=C1SCN(c2ccccc2)C(=O)N1CC=C` [Compound 139], the mortality at 100 ppm came to 100%.

The same series, now with this note: 120 h, 100 ppm, second-instar larvae, 25° C., five days, read-out: Mortality.
Consider `CCCN=C1SCN(c2ccccc2)C(=O)N1CC` [Compound 126], for which the mortality at 100 ppm worked out at 80%.

A further series concerns larvae of bug. (Togo hemipterus Scott). Nature of the series: Test Example 9: insecticidal activity against larvae of bug. In kind it is in vivo. As to conditions: 120 h, 10 ppm, first-instar larvae, 25° C., five days, read-out: Mortality. As for the experimental part: Insecticidal activity against larvae of bug. (Togo hemipterus Scott).
Test method: Into a glass tube (1.6 cm in internal diameter and 9 cm in length), was added 1 ml of a test composition in 10 ppm concentration just to moisten the absorbent cotton. Five rice seeds and five first-instar larvae were introduced into the glass tube and the tube end was covered with a piece of Japanese paper. The glass tube was kept in a constant temperature cabinet at 25° C. Five days after treatment, the dead-and-survival was inspected to calculate the mortality (3-replication test).
Take `CCCN1C(=O)N(c2ccccc2)CSC1=NC(C)CC` (stereo not shown) [Compound 136]: the mortality at 10 ppm was determined as 100%.

In the case of `CCC(C)N1C(=O)N(c2ccccc2)CSC1=NC(C)(C)CC(C)(C)C` (stereo not shown) [Compound 157], the mortality at 10 ppm stood at 100%.

With `CCCN=C1SCN(c2ccccc2)C(=O)N1CC` [Compound 126], the mortality at 10 ppm was 100%.

Take `CC(C)CN1C(=O)N(c2ccccc2)CSC1=NC(C)C` [Compound 149, 2-Isopropylimino-3-isobutyl-5-phenyl-tetrahydro-1,3,5-thiadiazin-4-one]: the mortality at 10 ppm amounted to 50%.

Regarding `C=CCN1C(=O)N(c2ccccc2)CSC1=NC(C)(C)C` [Compound 143], the mortality at 10 ppm was determined as 100%.

In the case of `CCN1C(=O)N(c2ccccc2)CSC1=NCC(C)C` [Compound 129], the mortality at 10 ppm was 100%.

On to `C=CCN=C1SCN(c2ccccc2)C(=O)N1CC=C` [Compound 139], for which the mortality at 10 ppm amounted to 100%.

Source of the values: patent publication US4159328A, “Tetrahydro-1,3,5-thiadiazin-4-one derivative” (Nihon Nohyaku Co., Ltd., priority 1977, dated 1979).
